“And” between values parts separate entries of the source, which are not always exact repeats. Identical values can stand only once.
Assay: wn = mass fraction of the nth substance listed
Details: Liquid, Pulse-echo method, w2 = 0.5

FC(F)C(F)(F)F [pentafluoroethane] + FCF
speed of sound
Details	308.25 K	318.17 K	328.17 K	338.16 K
2750 kPa	–	323.4 m/s	–	–
2760 kPa	–	323.6 m/s	–	–
2880 kPa	–	327.2 m/s	–	–
3010 kPa	–	330.8 m/s	–	–
3250 kPa	–	337.8 m/s	–	–
3470 kPa	–	–	257.9 m/s and 258.1 m/s and 258 m/s	–
3500 kPa	–	344.5 m/s	–	–
3590 kPa	–	–	263.4 m/s	–
3720 kPa	–	–	269.8 m/s	–
3860 kPa	–	–	275.4 m/s	–
4000 kPa	–	356.6 m/s	281.3 m/s	–
4250 kPa	–	–	290.2 m/s	–
4340 kPa	–	–	–	183.3 m/s
4410 kPa	–	–	–	189.7 m/s
4500 kPa	–	367.9 m/s	298.5 m/s	200.4 m/s
4750 kPa	–	–	–	217.6 m/s
5000 kPa	–	378.2 m/s	313.4 m/s	231.3 m/s
5500 kPa	–	–	–	255.4 m/s
6010 kPa	–	397.4 m/s	339.3 m/s	273.8 m/s
7010 kPa	–	414.5 m/s	360.6 m/s	303.5 m/s
8000 kPa	–	429.7 m/s	379.4 m/s	327.5 m/s
9000 kPa	–	444.1 m/s	396.7 m/s	348.4 m/s
10000 kPa	–	457.3 m/s	412.2 m/s	366.8 m/s
12000 kPa	–	481.7 m/s	440.2 m/s	398.9 m/s
14000 kPa	–	503.8 m/s	464.8 m/s	426.3 m/s
16010 kPa	–	524.3 m/s	487.3 m/s	450.8 m/s
18000 kPa	–	543.1 m/s	507.4 m/s	472.9 m/s
20000 kPa	–	560.6 m/s	526.4 m/s	493.2 m/s
23000 kPa	–	585.3 m/s	552.3 m/s	521.1 m/s
26000 kPa	–	607.9 m/s	576.7 m/s	546.3 m/s
29010 kPa	–	628.9 m/s	598.7 m/s	569.7 m/s
32000 kPa	–	648.5 m/s	619.2 m/s	591.3 m/s
35000 kPa	–	667.3 m/s	638.6 m/s	611.3 m/s
40000 kPa	725.2 m/s	696.7 m/s	669 m/s	642.8 m/s
45000 kPa	751.3 m/s	723.8 m/s	697.4 m/s	671.7 m/s
50000 kPa	775.7 m/s	749.1 m/s	723.3 m/s	698.8 m/s
55000 kPa	798.8 m/s	772.8 m/s	747.8 m/s	724.1 m/s
60000 kPa	821 m/s	795.7 m/s	770.9 m/s	747.7 m/s
65000 kPa	841.9 m/s	817.3 m/s	793.1 m/s	770.1 m/s

Details	speed of sound [m/s]
308.25 K	383.4
318.17 K	323.4
